Test results as given in ChEMBL document CHEMBL1201862, “PubChem BioAssay data set” (2004).
Activity calls are given as the source filed them.

Columns and labels:
[1] = biological target: T1, Short transient receptor potential channel 4 (Mus musculus, UniProt Q9QUQ5); test: block of DAMGO-driven TRPC4 calcium entry – cell-based, HEK293 TRPC4/mu-opioid, Fluo-4 calcium, dose response (AID 434942); type: functional;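 further: potency of inhibitors blocking the TRPC4 calcium response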
T1 sequence (Q9QUQ5 whole entry): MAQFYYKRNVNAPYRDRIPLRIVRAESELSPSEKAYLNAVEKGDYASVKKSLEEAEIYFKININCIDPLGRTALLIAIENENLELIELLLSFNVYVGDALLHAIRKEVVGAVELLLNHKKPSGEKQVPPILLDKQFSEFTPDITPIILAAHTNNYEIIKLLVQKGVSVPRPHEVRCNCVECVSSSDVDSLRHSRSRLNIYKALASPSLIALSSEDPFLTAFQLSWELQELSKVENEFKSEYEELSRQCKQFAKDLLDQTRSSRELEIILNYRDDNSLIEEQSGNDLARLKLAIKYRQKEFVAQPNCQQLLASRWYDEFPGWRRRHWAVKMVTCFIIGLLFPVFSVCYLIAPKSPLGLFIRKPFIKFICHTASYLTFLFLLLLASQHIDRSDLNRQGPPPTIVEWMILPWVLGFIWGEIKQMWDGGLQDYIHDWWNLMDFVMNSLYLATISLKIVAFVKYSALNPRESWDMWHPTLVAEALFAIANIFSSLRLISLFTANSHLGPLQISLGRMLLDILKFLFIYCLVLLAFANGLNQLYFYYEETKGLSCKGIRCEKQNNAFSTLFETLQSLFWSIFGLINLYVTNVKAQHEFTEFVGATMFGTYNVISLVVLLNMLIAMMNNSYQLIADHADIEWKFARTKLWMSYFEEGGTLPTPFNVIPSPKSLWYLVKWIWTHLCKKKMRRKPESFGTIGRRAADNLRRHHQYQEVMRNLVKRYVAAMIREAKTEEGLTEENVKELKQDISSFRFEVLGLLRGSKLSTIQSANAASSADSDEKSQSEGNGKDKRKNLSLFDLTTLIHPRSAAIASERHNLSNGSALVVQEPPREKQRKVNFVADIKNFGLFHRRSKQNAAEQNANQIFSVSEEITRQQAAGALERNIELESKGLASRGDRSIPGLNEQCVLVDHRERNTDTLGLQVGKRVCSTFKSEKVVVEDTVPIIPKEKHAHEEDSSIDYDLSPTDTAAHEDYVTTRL

[2] = biological target: Eukaryotic translation initiation factor 4E (Mus musculus, UniProt P63073); test: blockers of eIF4G binding by eIF4E – biochemical, TR-FRET, dose response (AID 855); type: functional;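 further: potency for disrupting eIF4E binding to eIF4GI seen as loss of FRET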
[3] = A Cell Based Secondary Assay To Explore Cytotoxicity of Compounds that Sensitize Mycobacterium Tuberculosis to Beta-Lactam Antibiotics.; type: functional
[4] = Luminescence Cell-Based Dose Retest to Confirm Inhibitors of Cancer Stem Cells. [Related pubchem assays (depositor defined):AID2717, AID2721]; type: functional; settings: Homo sapiens
[5] = biological target: Nonstructural protein 1 (Influenza A virus, UniProt Q194T2); type: functional, Influenza A virus (A/California/07/2009(H1N1))
[6] = biological target: T2, Heat shock factor protein 1 (Mus musculus, UniProt P38532); test: decrease of HSF1-responsive luciferase luminescence – cell-based, NIH3T3, dose retest, confirmation (AID 2382); type: functional;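 further: NIH3T3 fibroblasts with HSF1-driven luciferase reporter stressed by proteasome inhibitor MG132; luminescence from HSF1-driven luciferase expression after 8 hours of MG132 stress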
T2 sequence (P38532 whole entry): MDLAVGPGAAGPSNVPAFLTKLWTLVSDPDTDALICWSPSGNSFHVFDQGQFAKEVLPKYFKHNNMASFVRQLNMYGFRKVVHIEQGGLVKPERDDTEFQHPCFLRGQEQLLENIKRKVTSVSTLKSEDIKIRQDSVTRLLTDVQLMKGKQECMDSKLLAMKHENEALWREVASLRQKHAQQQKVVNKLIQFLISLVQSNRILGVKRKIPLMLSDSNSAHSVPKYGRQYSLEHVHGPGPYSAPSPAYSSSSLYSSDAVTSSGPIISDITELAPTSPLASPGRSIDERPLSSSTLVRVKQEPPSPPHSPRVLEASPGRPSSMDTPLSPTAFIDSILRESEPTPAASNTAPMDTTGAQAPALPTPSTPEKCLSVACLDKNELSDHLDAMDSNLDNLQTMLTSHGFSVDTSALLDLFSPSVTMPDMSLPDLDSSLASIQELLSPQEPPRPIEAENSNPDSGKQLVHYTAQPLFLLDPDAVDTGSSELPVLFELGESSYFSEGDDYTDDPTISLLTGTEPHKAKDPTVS

[7] = cells; type: functional, cell-based
[8] = biological target: T3, Calpain-2 catalytic subunit (Sus scrofa, UniProt P43367); test: m-calpain protease blockers, concentration series – biochemical, fluorogenic peptide substrate, dose response (AID 1420); type: functional
T3 sequence (P43367 whole entry): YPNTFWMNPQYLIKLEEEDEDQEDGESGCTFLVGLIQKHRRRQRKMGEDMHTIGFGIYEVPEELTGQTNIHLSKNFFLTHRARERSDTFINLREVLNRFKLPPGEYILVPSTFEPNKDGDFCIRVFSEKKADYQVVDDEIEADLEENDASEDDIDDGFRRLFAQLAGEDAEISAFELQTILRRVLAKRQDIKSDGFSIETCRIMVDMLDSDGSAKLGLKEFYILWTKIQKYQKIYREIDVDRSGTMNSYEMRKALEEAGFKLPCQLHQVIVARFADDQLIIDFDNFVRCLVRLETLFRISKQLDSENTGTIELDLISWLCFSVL

[9] = biological target: T4, Corticotropin-releasing factor receptor 2/Corticotropin-releasing factor-binding protein (Homo sapiens, UniProt P24387+Q13324); test: Dose Response confirmation of uHTS hits for small molecule antagonists of the CRF-binding protein and CRF-R2 receptor complex.; type: functional; settings: read-out: IC50_Mean
T4 sequence (Q13324 whole entry): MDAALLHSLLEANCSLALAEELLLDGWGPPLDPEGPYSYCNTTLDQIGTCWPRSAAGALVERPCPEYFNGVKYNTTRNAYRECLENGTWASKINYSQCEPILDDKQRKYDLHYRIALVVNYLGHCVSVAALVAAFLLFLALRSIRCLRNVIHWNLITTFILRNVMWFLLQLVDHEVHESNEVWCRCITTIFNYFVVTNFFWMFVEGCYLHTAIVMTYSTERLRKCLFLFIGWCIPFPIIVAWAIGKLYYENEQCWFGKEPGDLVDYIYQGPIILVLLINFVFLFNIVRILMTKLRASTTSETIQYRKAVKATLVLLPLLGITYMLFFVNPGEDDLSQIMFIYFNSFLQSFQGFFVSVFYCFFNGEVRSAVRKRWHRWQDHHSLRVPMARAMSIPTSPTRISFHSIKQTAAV
T4 sequence (P24387 whole entry): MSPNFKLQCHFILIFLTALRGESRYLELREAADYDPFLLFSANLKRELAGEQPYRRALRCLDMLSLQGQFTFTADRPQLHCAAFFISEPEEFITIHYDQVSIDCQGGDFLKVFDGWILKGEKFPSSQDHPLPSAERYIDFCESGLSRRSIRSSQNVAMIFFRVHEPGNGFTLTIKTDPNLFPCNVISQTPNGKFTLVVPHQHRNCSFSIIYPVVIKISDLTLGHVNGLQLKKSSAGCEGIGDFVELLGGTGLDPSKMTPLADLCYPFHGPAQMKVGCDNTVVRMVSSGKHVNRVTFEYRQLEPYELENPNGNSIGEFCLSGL

[10] = biological target: T4, Corticotropin-releasing factor receptor 2/Corticotropin-releasing factor-binding protein; test: activators of CRF receptor 2 with binding protein – uHTS hits, confirmation (AID 602473); type: functional; settings: read-out: EC50_Mean
[11] = blockers of CRF-binding protein–CRF-R2 complex – cell-based, uHTS hits, 384-well, dose response (AID 651639); type: functional, Homo sapiens; settings: read-out: IC50_Mean
[12] = biological target: Cytochrome P450 3A4 (Homo sapiens, UniProt P08684);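 further: CYP3A4 tested as one member of a cytochrome P450 panel screen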
[13] = biological target: T5, Protein skinhead-1 (Caenorhabditis elegans, UniProt P34707); type: functional
T5 sequence (P34707 whole entry): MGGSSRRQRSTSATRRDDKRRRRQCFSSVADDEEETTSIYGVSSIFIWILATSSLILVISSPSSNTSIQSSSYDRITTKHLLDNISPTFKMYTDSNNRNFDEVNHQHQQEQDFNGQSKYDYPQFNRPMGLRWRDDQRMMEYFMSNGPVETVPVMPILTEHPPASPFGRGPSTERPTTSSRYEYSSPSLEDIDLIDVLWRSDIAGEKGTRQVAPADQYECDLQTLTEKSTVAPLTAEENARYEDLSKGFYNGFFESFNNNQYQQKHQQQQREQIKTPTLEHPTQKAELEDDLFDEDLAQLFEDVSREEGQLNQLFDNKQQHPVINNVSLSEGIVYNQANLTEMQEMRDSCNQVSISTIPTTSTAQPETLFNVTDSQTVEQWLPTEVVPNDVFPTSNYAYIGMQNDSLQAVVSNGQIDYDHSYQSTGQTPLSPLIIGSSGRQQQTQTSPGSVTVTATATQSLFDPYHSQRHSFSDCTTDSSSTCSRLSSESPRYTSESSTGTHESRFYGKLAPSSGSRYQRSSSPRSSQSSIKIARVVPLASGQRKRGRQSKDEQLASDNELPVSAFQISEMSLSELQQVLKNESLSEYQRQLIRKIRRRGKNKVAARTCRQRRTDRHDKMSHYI

Structure (SMILES): Cc1ccc(OCC(COCc2ccccc2)NC(C)C)cc1 (stereo unspecified)
- EC50 [1]: 3.76 µM (active)

Structure (SMILES): CC(C)N(Cc1nc(-c2ccccc2)no1)C(=O)COc1ccccc1
- IC50 [2]: > 64 µM (inactive)

Structure (SMILES): CCCN1CCN(C(=O)CCCNC(=O)Cn2cnc3sc(C)c(C)c3c2=O)CC1
- IC50 [2]: > 64 µM (inactive)

Structure (SMILES): CN1CCN(c2ccccc2NC(=O)c2ccc(-c3ccc(Cl)c(Cl)c3)o2)CC1
- CC50 [3]: 25.2 µM (active)
- AC50 [4]: 4.06 µM (active)

Structure (SMILES): Cc1ccc(O)c(/C=N/NC(=O)CN2CCCC2)c1
- IC50 [5]: 15.3 µM (active)
- EC50 [6]: > 195 µM (not active)
- EC50 [7]: 104 µM (active)

Structure (SMILES): OC(COC(c1ccccc1)c1ccccc1)CN1CCN(c2cccc(Cl)c2)CC1 (stereo unspecified)
- CC50 [3]: > 40 µM (active)

Structure (SMILES): COc1cc(NC(=O)c2cc(-c3cccnc3)nc3ccc(Br)cc23)cc(OC)c1
- CC50 [3]: > 40 µM (active)

Structure (SMILES): Cc1nn(-c2ccccc2)c2c1C(c1ccc(Br)s1)C(C#N)=C(N)O2 (stereo unspecified)
- IC50 [5]: 76.2 µM (active)
- IC50 [8]: > 50 µM (not active)

Structure (SMILES): Cc1ccc(C)c(N2CCN(S(=O)(=O)c3ccc4c(c3)C(C)(C)C(=O)N4C)CC2)c1
- IC50 [9]: 38.6 µM (active)
- EC50 [10]: > 53 µM (inactive)
- IC50 [11]: 9.45 µM (active)

Structure (SMILES): Cc1cc([N+](=O)[O-])ccc1NCc1ccccc1
- IC50 [9]: 4.41 µM (active)
- AC50 [12]: 14.1 µM (inconclusive)
- EC50 [1]: 0.841 µM (active)
- EC50 [10]: > 53 µM (inactive)
- IC50 [13]: 66.9 µM (inactive)
- IC50 [11]: 8.31 µM (active)
